The source of these data is patent US20190105389A1, “ADJUVANT SYSTEM FOR ORAL VACCINE ADMINISTRATION” (Vaxform LLC, priority 2012, published 2019).

The nature of data set [1]: Linkage (adsorption) of CTL receptor agonist to aluminum adjuvant (FIG. 2). The class given is physicochemical. To be noted: aluminum oxyhydroxide. An excerpt: However, monosaccharides can be modified by a chemical group including but not limited to fluoride, phosphate, sulfate, or carbonate group which permits a ligand exchange linkage of the molecule to the aluminum-containing adjuvant. Method for modifying saccharides by addition of fluoride, phosphate, sulfate, or carbonate groups is well known in the art (Cantos, et al. Biochem. J. (1993) 288: 155-160; Carbohydrate Chemistry, Royal Society of Chemistry, Ed. RD Guthrie (1968)). This is illustrated in FIG. 2 utilizing mannose as the CTL receptor agonist and aluminum oxyhydroxide. […] However, addition of a phosphate group at the 1 position of mannose (M1P) results in approximately 100% linkage of the CTL agonist to the aluminum adjuvant.
Another method to the increased avidity of the saccharide for the aluminum adjuvant particle is polymerization. For instance the avidity of the saccharide for the aluminum adjuvant particle may be increased by increasing the size of the saccharide by polymerization to produce a polysaccharide. The increase avidity for the aluminum adjuvant is due to the larger number of interactions of a polysaccharide as compared to a monosaccharide to allow for the stable linkage of the polysaccharide agonist to the aluminum adjuvant particle. […]

Data set [2] can be described thus: Stability of CTL agonist linkage to aluminum particle on exposure to phosphate (FIG. 3A, 3B). Type of data set: physicochemical. To be noted: exposed to 50 mM phosphate pH 7.4 for 30 minutes in the absence of antigen. An excerpt:
It is important to maintain the stability of the CTL agonist linkage to the aluminum particle upon exposure to body fluid following administration. Components of interstitial fluid such as phosphate, citrate, and protein have the potential to remove the linkage of the CTL agonist with aluminum-containing adjuvants. The resulting soluble CTL agonist may adversely impact the immune response. FIG. 3A illustrates that M1P as well as mannan maintain approximately 100% linkage with aluminum oxyhydroxide when exposed to 50 mM phosphate pH 7.4 for 30 minutes in the absence of antigen.

`O=P(O)(O)OC1O[C@H](CO)[C@@H](O)[C@H](O)[C@@H]1O` (stereo partly shown) [Formulation M1P, mannose-1-phosphate]: the “Linkage of the CTL agonist to the aluminum adjuvant” value in data set [1] is listed as “approximately 100%”. In addition, the “Linkage with aluminum oxyhydroxide maintained” value in data set [2] is given as “approximately 100%”.
With mannan, the “Linkage of the CTL agonist to the aluminum adjuvant” value in data set [1] is reported as “approximately 100%”. For the same compound, the “Linkage with aluminum oxyhydroxide maintained” value in data set [2] is recorded as “approximately 100%”.
